Experimental data: patent US20050250752A1, “Cembranoids with chemopreventive activity” (priority 2002, published 2005)

Tests used:
Raji cells = assay: Viability of treated Raji cells (Trypan Blue staining); assay type: cell-based
Procedure: (§1) The inhibition of EBV-EA activation was assayed using Raji cells (virus non-producer type). The indicator cells (Raji, 1×10^6/ml) were incubated at 37° C. for 48 h in 1 ml of medium containing n-butyric acid (4 mmol), TPA(12-O-tetradecanoylphorbol 13-acetate)(32 pmol=20 ng in 2 μl DMSO) as inducer and various amounts of test compounds in 5 μl DMSO. Smears were made from the cell suspension, and the activated cells, which were stained by EBV-EA positive serum from nasopharygeal carcinoma patients were detected by an indirect immunofluorescence technique. For each compound, assays were performed in triplicate. The average EBV-EA induction of the test compounds was expressed as a relative ratio to the control experiment (100%), which was carried out only with n-butyric acid plus TPA. The viability of treated Raji cells was assayed by the Trypan Blue staining method.

[1] = system: Epstein-Barr virus early antigen (EBV-EA) of Raji cells induced by tumor promoter (TPA); assay: Inhibition of EBV-EA activation induced by TPA in Raji cells; assay type: cell-based; details: TPA 32 pmol, Raji cells, 48 h
Procedure: as §1

[2] = system: papillomas (mouse skin carcinogenesis induced by DMBA/TPA); assay: Two-stage mouse skin carcinogenesis model induced by DMBA/TPA; assay type: in vivo, mouse (female ICR); details: topical 85 nm 1 hour before TPA, ICR mice
Procedure: In the two-stage mouse skin carcinogenesis model induced by DMBA/TPA, the animals (specific pathogen-free female ICR, 6 weeks old) were divided into 5 groups, 15 mice each. The back of each mouse was shaved with surgical clippers, and the mice were topically treated with DMBA (100 μg, 390 nmol) in acetone (0.1 ml) as an initiation treatment. For the positive control group, 1 week after initiation with DMBA, mice were promoted by the application with TPA (1 μg, 1.7 nmol) in acetone (0.1 ml) twice a week. The other four groups received a topical application of each of the sarcophine semi-synthetic derivatives (85 nm) 1 hour before application of the tumor promoter. The incidence of papillomas was observed weekly for 20 weeks. The percentage of mice bearing papillomas and the average number of papillomas per mouse were recorded.

[3] = x 1000 mol ratio/TPA (32 nmol/mL)

13S-hydroxysarcophine [Compound 4]
viability percentage of Raji cells (indicator cells) (Raji cells; x 10 mol ratio/TPA): > 80%
viability percentage of Raji cells (indicator cells) (Raji cells; x 100 mol ratio/TPA): > 80%
viability percentage of Raji cells (indicator cells) (Raji cells; x 500 mol ratio/TPA): > 80%
viability percentage of Raji cells (indicator cells) (Raji cells; [3]): 60%
EBV-EA induction, percentage relative to the positive control value (100%) ([1]; x 10 mol ratio/TPA): 100%
EBV-EA induction, percentage relative to the positive control value (100%) ([1]; x 100 mol ratio/TPA): 81.3%
EBV-EA induction, percentage relative to the positive control value (100%) ([1]; x 500 mol ratio/TPA): 62.8%
EBV-EA induction, percentage relative to the positive control value (100%) [1, 3]: 14.2%

CC1=C2CC/C(C)=C/CC[C@]3(C)O[C@H]3CC/C(C)=C/[C@@H]2OC1=O [Compound 3, Sarcophine, reference compound]
viability percentage of Raji cells (indicator cells) (Raji cells; human, 48 h, 0.32 nmol/mL): > 80%
viability percentage of Raji cells (indicator cells) (Raji cells; human, 48 h, 3.2 nmol/mL): > 80%
viability percentage of Raji cells (indicator cells) (Raji cells; x 500 mol ratio/TPA): > 80%
viability percentage of Raji cells (indicator cells) (Raji cells; [3]): 60%
EBV-EA induction, percentage relative to the positive control value (100%) ([1]; x 10 mol ratio/TPA): 100%
EBV-EA induction, percentage relative to the positive control value (100%) ([1]; x 100 mol ratio/TPA): 84.0%
EBV-EA induction, percentage relative to the positive control value (100%) ([1]; x 500 mol ratio/TPA): 67.5%
EBV-EA induction, percentage relative to the positive control value (100%) [1, 3]: 19.6%

CC1=C2CC/C(C=O)=C/CC[C@]3(C)O[C@H]3CC/C(C)=C/[C@@H]2OC1=O [Compound 6, sarcophine-20-carboxyaldehyde]
viability percentage of Raji cells (indicator cells) (Raji cells; x 10 mol ratio/TPA): > 80%
viability percentage of Raji cells (indicator cells) (Raji cells; x 100 mol ratio/TPA): > 80%
viability percentage of Raji cells (indicator cells) (Raji cells; x 500 mol ratio/TPA): > 80%
viability percentage of Raji cells (indicator cells) (Raji cells; [3]): 60%
EBV-EA induction, percentage relative to the positive control value (100%) ([1]; x 10 mol ratio/TPA): 96.0%
EBV-EA induction, percentage relative to the positive control value (100%) ([1]; x 100 mol ratio/TPA): 78.2%
EBV-EA induction, percentage relative to the positive control value (100%) ([1]; x 500 mol ratio/TPA): 60.8%
EBV-EA induction, percentage relative to the positive control value (100%) [1, 3]: 12.7%

C/C(CO)=C1\CC/C(C)=C/CCC2(C)OC2CC/C(C)=C/C1O (stereo not drawn) [Compound 10]
viability percentage of Raji cells (indicator cells) (Raji cells; x 10 mol ratio/TPA): > 80%
viability percentage of Raji cells (indicator cells) (Raji cells; x 100 mol ratio/TPA): > 80%
viability percentage of Raji cells (indicator cells) (Raji cells; x 500 mol ratio/TPA): > 80%
viability percentage of Raji cells (indicator cells) (Raji cells; [3]): 60%
Papilloma Bearer (%) ([2]; week 1 of promotion): 0.0%
Papillomas/mouse ([2]; week 1 of promotion): 0.0
Papilloma Bearer (%) ([2]; week 2 of promotion): 0.0%
Papillomas/mouse ([2]; week 2 of promotion): 0.0
Papilloma Bearer (%) ([2]; week 3 of promotion): 0.0%
Papillomas/mouse ([2]; week 3 of promotion): 0.0
Papilloma Bearer (%) ([2]; week 4 of promotion): 0.0%
Papillomas/mouse ([2]; week 4 of promotion): 0.0
Papilloma Bearer (%) ([2]; week 5 of promotion): 0.0%
Papillomas/mouse ([2]; week 5 of promotion): 0.0
Papilloma Bearer (%) ([2]; week 6 of promotion): 0.0%
Papillomas/mouse ([2]; week 6 of promotion): 0.0
Papilloma Bearer (%) ([2]; week 7 of promotion): 0.0%
Papillomas/mouse ([2]; week 7 of promotion): 0.0
Papilloma Bearer (%) ([2]; week 8 of promotion): 13.3%
Papillomas/mouse ([2]; week 8 of promotion): 0.5
Papilloma Bearer (%) ([2]; week 9 of promotion): 13.3%
Papillomas/mouse ([2]; week 9 of promotion): 0.9
Papilloma Bearer (%) ([2]; week 10 of promotion): 26.6%
Papillomas/mouse ([2]; week 10 of promotion): 1.3
Papilloma Bearer (%) ([2]; week 11 of promotion): 33.3%
Papillomas/mouse ([2]; week 11 of promotion): 1.8
Papilloma Bearer (%) ([2]; week 12 of promotion): 40.0%
Papillomas/mouse ([2]; week 12 of promotion): 2.1
Papilloma Bearer (%) ([2]; week 13 of promotion): 46.6%
Papillomas/mouse ([2]; week 13 of promotion): 2.3
Papilloma Bearer (%) ([2]; week 14 of promotion): 53.3%
Papillomas/mouse ([2]; week 14 of promotion): 2.5
Papilloma Bearer (%) ([2]; week 15 of promotion): 60.0%
Papillomas/mouse ([2]; week 15 of promotion): 2.7
Papilloma Bearer (%) ([2]; week 16 of promotion): 73.3%
Papillomas/mouse ([2]; week 16 of promotion): 3.1
Papilloma Bearer (%) ([2]; week 17 of promotion): 73.3%
Papillomas/mouse ([2]; week 17 of promotion): 3.6
Papilloma Bearer (%) ([2]; week 18 of promotion): 80.0%
Papillomas/mouse ([2]; week 18 of promotion): 4.0
Papilloma Bearer (%) ([2]; week 19 of promotion): 80.0%
Papillomas/mouse ([2]; week 19 of promotion): 4.6
Papilloma Bearer (%) ([2]; week 20 of promotion): 80.0%
Papillomas/mouse ([2]; week 20 of promotion): 4.8
EBV-EA induction, percentage relative to the positive control value (100%) ([1]; x 10 mol ratio/TPA): 94.1%
EBV-EA induction, percentage relative to the positive control value (100%) ([1]; x 100 mol ratio/TPA): 75.5%
EBV-EA induction, percentage relative to the positive control value (100%) ([1]; x 500 mol ratio/TPA): 57.3%
EBV-EA induction, percentage relative to the positive control value (100%) [1, 3]: 9.6%
